± gives the expanded uncertainty stated by the source.

For orientation: mass density means the mass of a sample divided by its volume.

For data set [1] the following is noted: 298.15 K; 101.33 kPa; Liquid.
Data set [2] in a line: xn = mol fraction of the nth substance listed. The note with it: 298.15 K, 101 kPa, Liquid, Vibrating tube method.

Take `CCCO` [propan-1-ol]: the mass density in data set [1] was found to be 800.61 ± 0.23 kg/m3.
As to `C=COCCC` [propyl vinyl ether], the mass density in data set [1] stood at 762.69 ± 0.26 kg/m3.
`Cc1ccccc1` [toluene]: in data set [1], the mass density is listed as 862.23 ± 0.18 kg/m3.
Consider `C=COCCC` [propyl vinyl ether] + Cc1ccccc1, for which the mass density in data set [2] (x1 = 0.0494) was 857.3 ± 0.22 kg/m3; in data set [2] (x1 = 0.1002) it was 852.46 ± 0.22 kg/m3; in data set [2] (x1 = 0.1995) it was 843.05 ± 0.22 kg/m3; in data set [2] (x1 = 0.2999) it was 833.4 ± 0.22 kg/m3; in data set [2] (x1 = 0.3993) it was 823.66 ± 0.22 kg/m3; in data set [2] (x1 = 0.5002) it was 813.73 ± 0.22 kg/m3. The mass density in data set [2] (x1 = 0.5999) is 803.77 ± 0.22 kg/m3; in data set [2] (x1 = 0.6998), 793.65 ± 0.22 kg/m3; in data set [2] (x1 = 0.7999), 783.69 ± 0.22 kg/m3; in data set [2] (x1 = 0.8993), 773.56 ± 0.22 kg/m3; in data set [2] (x1 = 0.95) it was 768.31 ± 0.22 kg/m3.

The record behind these values is the NIST ThermoML archive (doi:10.1021/je800972b).
